Data taken from ChEMBL document CHEMBL3407416, “Discovery of (R)-8-(1-(3,5-difluorophenylamino)ethyl)-N,N-dimethyl-2-morpholino-4-oxo-4H-chromene-6-carboxamide (AZD8186): a potent and selective inhibitor of PI3Kβ and PI3Kδ for the treatment of PTEN-deficient cancers” (J Med Chem, 2015).
Calls of active or inactive are those of the source. The calls are words filed in the database; no cut-off is given here.

Key:
[1] = target: Phosphatidylinositol 4,5-bisphosphate 3-kinase catalytic subunit gamma isoform (Homo sapiens, UniProt P48736); assay: Inhibition of human recombinant PI3Kgamma using PIP2 by Kinase-Glo Plus assay
Chain of Phosphatidylinositol 4,5-bisphosphate 3-kinase catalytic subunit gamma isoform (P48736 whole entry, canonical isoform): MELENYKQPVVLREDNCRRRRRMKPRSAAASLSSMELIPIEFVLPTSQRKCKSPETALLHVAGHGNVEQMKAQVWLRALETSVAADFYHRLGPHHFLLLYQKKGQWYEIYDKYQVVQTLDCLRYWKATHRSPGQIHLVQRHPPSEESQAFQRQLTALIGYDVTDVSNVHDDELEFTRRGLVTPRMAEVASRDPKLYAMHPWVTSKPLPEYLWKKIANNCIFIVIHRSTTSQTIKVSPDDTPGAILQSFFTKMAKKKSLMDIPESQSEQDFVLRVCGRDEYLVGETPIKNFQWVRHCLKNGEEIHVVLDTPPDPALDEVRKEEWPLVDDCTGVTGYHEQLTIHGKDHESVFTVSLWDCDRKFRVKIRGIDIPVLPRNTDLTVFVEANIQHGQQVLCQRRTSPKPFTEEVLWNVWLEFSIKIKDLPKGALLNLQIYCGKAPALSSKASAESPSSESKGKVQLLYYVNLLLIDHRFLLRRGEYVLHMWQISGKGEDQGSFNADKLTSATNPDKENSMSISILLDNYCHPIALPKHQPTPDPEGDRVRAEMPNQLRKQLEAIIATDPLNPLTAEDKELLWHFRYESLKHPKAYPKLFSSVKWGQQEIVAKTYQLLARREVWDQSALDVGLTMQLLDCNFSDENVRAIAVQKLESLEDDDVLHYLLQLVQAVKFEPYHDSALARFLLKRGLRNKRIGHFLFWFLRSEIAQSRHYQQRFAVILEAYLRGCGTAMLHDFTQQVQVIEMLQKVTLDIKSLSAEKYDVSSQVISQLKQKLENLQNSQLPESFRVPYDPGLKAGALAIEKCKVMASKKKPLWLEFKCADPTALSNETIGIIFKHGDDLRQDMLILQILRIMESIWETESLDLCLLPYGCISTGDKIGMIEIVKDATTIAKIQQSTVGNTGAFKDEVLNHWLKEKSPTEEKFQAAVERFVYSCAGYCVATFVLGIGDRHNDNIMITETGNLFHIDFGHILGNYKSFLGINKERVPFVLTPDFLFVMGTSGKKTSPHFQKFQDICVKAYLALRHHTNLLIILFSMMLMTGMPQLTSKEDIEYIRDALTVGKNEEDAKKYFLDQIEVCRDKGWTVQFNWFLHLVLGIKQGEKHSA

[2] = Intrinsic clearance in cryopreserved human hepatocytes measured per 10^6 cells; format: ADME, cell-based, Hepatocyte; details: read-out: CLH
[3] = target: T1, Phosphatidylinositol 4,5-bisphosphate 3-kinase catalytic subunit alpha isoform (Homo sapiens, UniProt P42336); assay: Inhibition of PI3Kalpha mutant human BT474 cells assessed as inhibition of Akt phosphorylation at […] after 2 hrs; format: cell-based; details: bt-474
Target sequence in this assay (P42336 whole entry, looked up, canonical isoform): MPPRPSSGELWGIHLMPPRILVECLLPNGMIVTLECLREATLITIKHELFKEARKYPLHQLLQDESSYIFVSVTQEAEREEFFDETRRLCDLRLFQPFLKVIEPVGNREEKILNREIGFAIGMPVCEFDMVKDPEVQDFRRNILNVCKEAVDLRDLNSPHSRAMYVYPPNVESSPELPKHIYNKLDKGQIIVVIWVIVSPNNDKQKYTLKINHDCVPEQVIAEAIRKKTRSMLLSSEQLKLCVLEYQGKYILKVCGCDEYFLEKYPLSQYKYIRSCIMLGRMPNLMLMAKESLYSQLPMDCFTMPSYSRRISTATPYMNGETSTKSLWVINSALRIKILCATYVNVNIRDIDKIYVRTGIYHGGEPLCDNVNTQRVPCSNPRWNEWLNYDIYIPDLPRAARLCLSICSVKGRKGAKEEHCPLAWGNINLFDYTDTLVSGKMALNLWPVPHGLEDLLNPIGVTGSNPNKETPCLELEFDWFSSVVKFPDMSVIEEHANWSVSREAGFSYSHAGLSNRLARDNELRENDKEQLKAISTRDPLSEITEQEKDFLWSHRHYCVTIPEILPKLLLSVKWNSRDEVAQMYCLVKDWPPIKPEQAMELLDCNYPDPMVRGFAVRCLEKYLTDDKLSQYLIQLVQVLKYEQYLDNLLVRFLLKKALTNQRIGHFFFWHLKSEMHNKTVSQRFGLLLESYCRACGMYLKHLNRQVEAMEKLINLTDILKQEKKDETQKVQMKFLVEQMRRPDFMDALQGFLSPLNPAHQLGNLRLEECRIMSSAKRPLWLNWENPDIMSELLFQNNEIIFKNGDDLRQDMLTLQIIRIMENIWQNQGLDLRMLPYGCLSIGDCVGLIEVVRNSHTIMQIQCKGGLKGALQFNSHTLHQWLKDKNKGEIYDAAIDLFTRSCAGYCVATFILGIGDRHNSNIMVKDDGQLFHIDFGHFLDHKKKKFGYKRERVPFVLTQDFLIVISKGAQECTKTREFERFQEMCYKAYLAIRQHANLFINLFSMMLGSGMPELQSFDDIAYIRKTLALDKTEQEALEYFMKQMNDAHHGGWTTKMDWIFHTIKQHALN

BT-474 = assay: Selectivity ratio of IC50 for human PI3Kbeta in human MDA-MB-468 cells to IC50 for PI3Kalpha in human BT474 cells; format: cell-based
[4] = target: T2, Phosphatidylinositol 4,5-bisphosphate 3-kinase catalytic subunit beta isoform (Homo sapiens, UniProt P42338); assay: Inhibition of human recombinant PI3Kbeta using PIP2 by Kinase-Glo Plus assay
T2 sequence (P42338 whole entry, canonical isoform): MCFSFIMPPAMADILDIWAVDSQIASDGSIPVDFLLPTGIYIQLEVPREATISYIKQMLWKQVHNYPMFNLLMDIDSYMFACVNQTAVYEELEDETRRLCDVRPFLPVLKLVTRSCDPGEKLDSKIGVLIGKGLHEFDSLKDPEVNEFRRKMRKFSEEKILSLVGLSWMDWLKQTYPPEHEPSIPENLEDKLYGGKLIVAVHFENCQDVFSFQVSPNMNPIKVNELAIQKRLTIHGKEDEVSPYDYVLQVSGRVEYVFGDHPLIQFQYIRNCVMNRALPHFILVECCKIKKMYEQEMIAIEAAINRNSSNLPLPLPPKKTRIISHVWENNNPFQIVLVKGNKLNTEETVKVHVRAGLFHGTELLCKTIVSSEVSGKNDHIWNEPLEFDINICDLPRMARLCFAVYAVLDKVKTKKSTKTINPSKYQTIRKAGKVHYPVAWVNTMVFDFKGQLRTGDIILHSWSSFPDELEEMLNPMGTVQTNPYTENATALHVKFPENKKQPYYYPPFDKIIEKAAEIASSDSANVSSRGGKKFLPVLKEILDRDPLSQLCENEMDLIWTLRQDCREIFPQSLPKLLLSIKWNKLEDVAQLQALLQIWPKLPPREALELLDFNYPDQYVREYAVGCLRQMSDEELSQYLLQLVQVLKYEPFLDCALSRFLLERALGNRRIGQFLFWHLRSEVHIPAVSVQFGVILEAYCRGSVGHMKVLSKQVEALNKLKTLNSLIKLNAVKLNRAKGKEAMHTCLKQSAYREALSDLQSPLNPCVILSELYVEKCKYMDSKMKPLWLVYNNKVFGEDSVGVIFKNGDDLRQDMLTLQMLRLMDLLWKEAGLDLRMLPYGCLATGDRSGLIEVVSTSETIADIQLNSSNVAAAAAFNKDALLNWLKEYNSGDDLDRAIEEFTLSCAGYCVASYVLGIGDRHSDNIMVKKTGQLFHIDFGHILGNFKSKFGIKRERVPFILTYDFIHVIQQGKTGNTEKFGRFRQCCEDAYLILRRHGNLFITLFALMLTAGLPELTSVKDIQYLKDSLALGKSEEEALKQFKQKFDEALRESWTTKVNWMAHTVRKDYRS

[5] = target: T2, Phosphatidylinositol 4,5-bisphosphate 3-kinase catalytic subunit beta isoform; assay: Inhibition of PI3Kbeta in PTEN-null human MDA-MB-468 cells assessed as inhibition of Akt phosphorylation after 2 hrs; format: cell-based
[6] = target: T3, Phosphatidylinositol 4,5-bisphosphate 3-kinase catalytic subunit delta isoform (Homo sapiens, UniProt O00329); assay: Inhibition of human recombinant PI3Kdelta using PIP2 by Kinase-Glo Plus assay
T3 sequence (O00329 whole entry): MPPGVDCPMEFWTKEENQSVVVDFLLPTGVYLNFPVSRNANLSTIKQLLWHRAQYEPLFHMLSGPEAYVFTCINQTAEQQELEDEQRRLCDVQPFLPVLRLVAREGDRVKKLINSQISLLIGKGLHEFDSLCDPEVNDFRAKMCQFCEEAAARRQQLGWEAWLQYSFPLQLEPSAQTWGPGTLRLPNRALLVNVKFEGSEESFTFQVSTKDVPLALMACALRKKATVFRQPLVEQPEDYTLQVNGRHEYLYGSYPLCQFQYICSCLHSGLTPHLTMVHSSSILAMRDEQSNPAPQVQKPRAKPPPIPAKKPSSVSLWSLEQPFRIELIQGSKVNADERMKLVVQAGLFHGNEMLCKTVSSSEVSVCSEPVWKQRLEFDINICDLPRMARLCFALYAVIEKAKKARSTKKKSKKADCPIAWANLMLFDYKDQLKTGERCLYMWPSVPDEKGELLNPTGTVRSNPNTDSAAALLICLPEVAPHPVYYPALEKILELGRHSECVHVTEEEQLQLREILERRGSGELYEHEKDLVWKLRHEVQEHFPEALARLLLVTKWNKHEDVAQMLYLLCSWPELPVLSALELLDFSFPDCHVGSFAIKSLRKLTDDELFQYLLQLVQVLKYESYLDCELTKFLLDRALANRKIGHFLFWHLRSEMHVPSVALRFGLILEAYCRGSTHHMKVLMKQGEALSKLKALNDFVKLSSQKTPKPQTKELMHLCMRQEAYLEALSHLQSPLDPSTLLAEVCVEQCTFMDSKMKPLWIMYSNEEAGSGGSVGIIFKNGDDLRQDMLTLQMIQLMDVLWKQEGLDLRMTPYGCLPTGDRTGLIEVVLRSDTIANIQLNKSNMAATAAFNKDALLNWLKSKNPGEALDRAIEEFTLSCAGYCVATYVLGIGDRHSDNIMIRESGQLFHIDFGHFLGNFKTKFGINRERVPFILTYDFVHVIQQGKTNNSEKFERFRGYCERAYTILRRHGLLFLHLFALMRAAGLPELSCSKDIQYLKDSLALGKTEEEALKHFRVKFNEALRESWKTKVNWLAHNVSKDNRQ

[7] = target: T1, Phosphatidylinositol 4,5-bisphosphate 3-kinase catalytic subunit alpha isoform; assay: Inhibition of human recombinant PI3Kalpha using PIP2 by Kinase-Glo Plus assay
Target sequence in this assay (P42336 whole entry, canonical isoform): as the sequence (P42336 whole entry, looked up, canonical isoform) above

[8] = Lipophilicity, log D of the compound at pH 7.4 by shake-flask method; format: physicochemical; details: buffer
[9] = Clearance in dog at 5 umol/kg, iv administered as bolus dose in 20 to 30% DMA in PBS; format: ADME, organism-based, Canis lupus familiaris; details: in vivo
[10] = Volume of distribution in mouse at 5 umol/kg, iv administered as bolus dose in 20 to 30% DMA in PBS; format: ADME, organism-based; details: in vivo
[11] = Apparent permeability from apical to basolateral side of human Caco2 cells; format: ADME, cell-based; details: Caco-2, read-out: permeability
[12] = Fraction unbound in human plasma; format: ADME, cell-free
[13] = target: T4, Voltage-gated inwardly rectifying potassium channel KCNH2 (Homo sapiens, UniProt Q12809); assay: Inhibition of human ERG channel at 100 uM
T4 sequence (Q12809 whole entry): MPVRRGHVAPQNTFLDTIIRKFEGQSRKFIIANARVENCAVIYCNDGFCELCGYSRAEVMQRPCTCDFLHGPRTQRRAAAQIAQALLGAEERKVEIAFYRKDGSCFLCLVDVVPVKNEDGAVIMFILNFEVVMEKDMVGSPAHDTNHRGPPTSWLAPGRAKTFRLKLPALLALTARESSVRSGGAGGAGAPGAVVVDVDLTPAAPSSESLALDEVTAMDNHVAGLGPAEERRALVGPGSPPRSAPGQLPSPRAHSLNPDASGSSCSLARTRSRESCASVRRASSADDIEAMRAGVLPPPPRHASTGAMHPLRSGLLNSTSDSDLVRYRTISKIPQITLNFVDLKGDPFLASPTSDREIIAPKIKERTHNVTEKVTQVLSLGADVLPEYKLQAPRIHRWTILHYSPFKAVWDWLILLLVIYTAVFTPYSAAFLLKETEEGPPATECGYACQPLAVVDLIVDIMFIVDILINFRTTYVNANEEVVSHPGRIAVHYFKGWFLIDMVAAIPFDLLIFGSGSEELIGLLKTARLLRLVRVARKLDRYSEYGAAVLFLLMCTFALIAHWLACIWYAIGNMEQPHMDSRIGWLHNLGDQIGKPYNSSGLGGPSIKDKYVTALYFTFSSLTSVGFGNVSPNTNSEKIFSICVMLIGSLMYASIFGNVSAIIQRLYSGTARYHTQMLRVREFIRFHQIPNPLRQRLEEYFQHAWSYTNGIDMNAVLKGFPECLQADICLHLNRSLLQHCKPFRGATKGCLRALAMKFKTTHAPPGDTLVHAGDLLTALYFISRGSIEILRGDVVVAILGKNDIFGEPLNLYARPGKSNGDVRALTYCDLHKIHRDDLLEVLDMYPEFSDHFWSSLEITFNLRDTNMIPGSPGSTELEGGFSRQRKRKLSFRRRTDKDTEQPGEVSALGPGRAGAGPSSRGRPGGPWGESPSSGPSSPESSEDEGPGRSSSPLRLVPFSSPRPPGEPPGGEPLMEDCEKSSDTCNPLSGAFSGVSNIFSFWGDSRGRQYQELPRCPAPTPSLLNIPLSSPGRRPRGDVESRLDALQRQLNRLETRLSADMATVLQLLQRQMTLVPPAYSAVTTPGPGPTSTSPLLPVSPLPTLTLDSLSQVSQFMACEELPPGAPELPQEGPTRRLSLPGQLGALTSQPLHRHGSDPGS

Mus musculus [14] = assay: Inhibition of Akt phosphorylation at Ser473 in PTEN-deficient human PC3 cells xenograft mouse model at 100 mg/kg, po single dose measured up to 8 hrs; format: functional, organism-based; design: dose 100 mg/kg; details: PC-3
[15] = Fraction unbound in mouse plasma; format: ADME, cell-free
PC-3 [16] = assay: Antitumor activity against human PC3 cells xenograft mouse model assessed as inhibition of tumor growth at 30 mg/kg, po bid in presence of 1-aminobenzotriazole; format: functional, organism-based; design: dose 30 mg/kg
[17] = Oral bioavailability in dog at 30 umol/kg administered as propylene glycol; format: ADME, organism-based, Canis lupus familiaris; details: in vivo
[18] = Volume of distribution in dog at 5 umol/kg, iv administered as bolus dose in 20 to 30% DMA in PBS; format: ADME, organism-based, Canis lupus familiaris; details: in vivo
PC-3 [19] = assay: Antitumor activity against human PC3 cells xenograft mouse model assessed as inhibition of tumor growth at 60 mg/kg, po bid in presence of 1-aminobenzotriazole; format: functional, organism-based; design: dose 60 mg/kg
Mus musculus [20] = assay: Intrinsic clearance in mouse at 5 umol/kg, iv administered as bolus dose in 20 to 30% DMA in PBS; format: ADME, organism-based; details: in vivo
[21] = Clearance in mouse at 5 umol/kg, iv administered as bolus dose in 20 to 30% DMA in PBS; format: ADME, organism-based; details: in vivo
[22] = Fraction unbound in dog plasma; format: ADME, cell-free, Canis lupus familiaris
[23] = Oral bioavailability in mouse at 30 umol/kg administered as propylene glycol; format: ADME, organism-based; details: in vivo
Canis familiaris = assay: Intrinsic clearance in dog at 5 umol/kg, iv administered as bolus dose in 20 to 30% DMA in PBS; format: ADME, organism-based, Canis lupus familiaris; details: in vivo
[24] = target: T3, Phosphatidylinositol 4,5-bisphosphate 3-kinase catalytic subunit delta isoform; assay: Inhibition of PI3Kdelta in human Jeko B cells assessed as inhibition of Akt phosphorylation after 2 hrs; format: cell-based
[25] = AUC in mouse at 30 umol/kg, po administered as propylene glycol; format: ADME, organism-based; details: plasma
[26] = target: T4, Voltage-gated inwardly rectifying potassium channel KCNH2; assay: Inhibition of human ERG channel

Row | IC50 [1] [nM] | hepatocyte CLint [2] [µL/min/1e6 cells] | IC50 [3] [nM] | IC50 [6] [nM] | IC50 [7] [nM] | logD [8] | clearance [9] [mL/min/kg] | Vd [10] [L/kg] | Papp A→B [11] [×10⁻⁶ cm/s] | fraction unbound [12] | fraction unbound [15] | bioavailability [17] [%] | Vd [18] [L/kg] | clearance (Mus musculus [20]) [mL/min/kg] | clearance [21] [mL/min/kg] | fraction unbound [22] | bioavailability [23] [%] | clearance (Canis familiaris) [mL/min/kg] | AUC [25] [µM·h] | SMILES | other results
1 | 3200 | < 3 | 3200 | 80 | 93 | 2.2 | – | – | – | – | – | – | – | – | – | – | – | – | – | CN(C)C(=O)c1cc(CNc2cc(F)cc(F)c2)c2oc(N3CCOCC3)cc(=O)c2c1 | Ratio IC50 (BT-474): 100; IC50 [4]: 8 nM; IC50 [5]: 35 nM
2 | 675 | 4 | 752 | 12 | 35 | 2.3 | 36 | 1.3 | 8 | 0.19 | 0.16 | 23 | 2.2 | 73 | 77 | 0.31 | 18 | 11 | 1.2 | C[C@@H](Nc1cc(F)cc(F)c1)c1cc(C(=O)N(C)C)cc2c(=O)cc(N3CCOCC3)oc12 [AZD-8186] | inhibition (INH) [13]: Not Active; inhibition (Mus musculus [14]): Active; inhibition (PC-3 [16]): Active; inhibition (PC-3 [19]): Active; IC50 [24]: 17 nM
3 | 3500 | < 4 | 3000 | 73 | 280 | 2.4 | 27 | 2 | 42 | 0.12 | 0.1 | 31 | 2.2 | 37 | 34 | 0.16 | 68 | 17 | 8.6 | C[C@H](c1cc(C(=O)N(C)C)cc2c(=O)cc(N3CCOCC3)oc12)N(C)c1cc(F)cc(F)c1 | IC50 [26]: 19000 nM
